Measurements published in patent US11787782B2, “Combinations of a 4-pyrimidinesulfamide derivative with active ingredients for the treatment of endothelin related diseases” (IDORSIA PHARMACEUTICALS LTD, priority 2017, dated 2023).

Columns and labels:
[1] = system: patients with rHT; conditions: 14 week phase 3 trial, cited from earlier work
[2] = Hygroscopicity by gravimetric vapor sorption (GVS); type: physicochemical
Text: Mass increase of a sample as obtained according to Example 1 in the first cycle from 40% r.h. to 80% r.h. corresponds to 0.4%. At 95% r.h. 2.2% moisture were taken up in a reversible way without hysteresis upon drying.

[3] = Storage at room temperature (crystal form stability, XRPD and HPLC control); type: physicochemical; conditions: 20-25° C.
Experimental: All XRPD patterns for the solid forms described herein have been obtained as described hereafter. X-ray powder diffraction patterns were collected on a Bruker D8 Advance X-ray diffractometer equipped with a Lynxeye detector operated with CuKα-radiation in reflection mode (coupled two Theta/Theta). Typically, the X-ray tube was run at of 40 kV/40 mA. A step size of 0.02° (2θ) and a step time of 76.8 sec over a scanning range of 3-50° in 2θ were applied. The divergence slit was set to fixed 0.3. Powders were slightly pressed into a silicon single crystal sample holder with depth of 0.5 mm and samples were rotated in their own plane during the measurement. Diffraction data are reported using combined Cu Kα1 and Kα2 radiation, without Kα2 stripping. The accuracy of the 2θ values as provided herein is in the range of +/−0.1-0.2° as it is generally the case for conventionally recorded X-ray powder diffraction patterns. A sample of Form A crystals of the COMPOUND (as obtained according to Example 1 above) has been stored at a temperature of 20-25° C. at 92% relative humidity for 2 months. […] The same result was obtained after storage for 8 weeks under the above conditions. […] A sample of Form B crystals of a dichloromethane solvate of the COMPOUND (as obtained according to Example 2 above) has been stored in a closed vial ([…] of Form B crystals being placed in a closed 4 mL vial) at a temperature of 20-25° C. for about 3 weeks. […] A sample of Form K crystals of a dimethylsulfoxide solvate of the COMPOUND (as obtained according to Example 7 above) has been stored in a closed vial ([…] of Form K crystals being placed in a closed 4 mL vial) at a temperature of 20-25° C. for about 3 weeks.

[4] = system: conscious, male spontaneously hypertensive rats; assay: Acute effects on top of Exforge HCT in SHRs (telemetry); type: in vivo, rat; conditions: for Blood pressure when added on top of Exforge HCT: aprocitentan 100 mg/kg or spironolactone 300 mg/kg oral, Exforge HCT 1.6/0.1/0.25 mg/kg
Experimental: The acute effects of Exforge HCT® (i.e. a fixed dose combination of valsartan/amlodipine/hydrochlorothiazide; dosage adapted for 1.6 mg/kg/0.1 mg/kg/0.25 mg/kg for valsartan/amlodipine/hydrochlorothiazide, respectively) on blood pressure, in particular on mean arterial blood pressure (hereafter “MAP”), and heart rate (hereafter “HR”) in combination with ACT-132577 or spironolactone were also evaluated by means of telemetry in conscious, male spontaneously hypertensive rats (hereafter “SHRs”-see details about this model in Atanur et al., Genome Res. (2010), 20, 791-803).
9 SHRs per treatment group were used for this test. To match the maximal effect on blood pressure of co-administered drug in this model, aprocitentan 100 mg/kg was administrated orally on the 3rd day following 3-day oral administration of Exforge HCT® mg/kg and spironolactone 300 mg/kg was co-administered orally with Exforge HCT® on the 1st day followed by 2 days of Exforge HCT® administration. The results obtained regarding MAP are summarised in FIGS. 19 and 20 wherein each data point is presented as a 6-hour mean.

[5] = system: conscious, male hypertensive deoxycorticosterone acetate salt rats; assay: Acute effects on top of Exforge HCT in DOCA-salt rats (telemetry); type: in vivo, rat; conditions: for Blood pressure when added on top of Exforge HCT: aprocitentan 10 mg/kg or spironolactone 300 mg/kg oral, Exforge HCT 3.2/0.2/0.5 mg/kg
Text: Res. (1975), 36, 300-309). In the DOCA-salt rats, hypertension is induced by the combination of unilateral nephrectomy, implantation of pellets of the mineralocorticoid analog DOCA, and provision of 1% sodium chloride in drinking water. 7-9 DOCA-salt rats per treatment group were used for this test. The results obtained regarding MAP are summarised in FIGS. 21 and 22 wherein each data point is presented as a 6-hour mean.

[6] = system: conscious, male spontaneously hypertensive rats; assay: Acute effects on MAP and HR by telemetry in spontaneously hypertensive rats; type: in vivo, rat; conditions: SHRs
Experimental: The acute effects of ACT-132577 on blood pressure, in particular on mean arterial blood pressure (hereafter “MAP”), and heart rate (hereafter “HR”) were evaluated by means of telemetry in conscious, male spontaneously hypertensive rats (hereafter “SHRs”—see details about this model in Atanur et al., Genome Res. (2010), 20, 791-803). Groups of 4-6 SHRs were used for the vehicle (7.5% gelatin aquous solution) and each dose of ACT-132577 tested (1, 3, 10, 30, 100, and 300 mg/kg). Effects of ACT-132577 on HR and MAP were calculated for individual animals relative to the 24 h period before administering. The results obtained regarding MAP (maximal MAP decrease observed over 6 consecutive hours) are summarised in FIG. 11 (data are presented as mean±standard error of the mean). In summary, a dose of 100 mg/kg ACT-132577 decreased MAP by 18±4 mm Hg in SHRs. In contrast to MAP, HR was not affected.

[7] = system: conscious, male hypertensive Dahl salt-sensitive rats; assay: Acute effects on MAP and HR by telemetry in Dahl salt-sensitive rats; type: in vivo, rat; conditions: Dahl-S rats
Experimental: The acute effects of ACT-132577 on blood pressure, in particular on mean arterial blood pressure (hereafter “MAP”), and heart rate (hereafter “HR”) were evaluated by means of telemetry in conscious, male hypertensive Dahl salt-sensitive rats (hereafter “Dahl-S rats”—see details about this model in Rapp, Hypertension (1982), 4, 753-763). Elevated blood pressure is induced in Dahl-S rats by providing 1% sodium chloride in drinking water. Groups of 6-7 Dahl-S rats were used for the vehicle (7.5% gelatin aqeuous solution) and each dose of ACT-132577 tested (0.3, 1, 3, 10, 30, 100, and 300 mg/kg). Effects of ACT-132577 on HR and MAP were calculated for individual animals relative to the 24 h period before administering. The results obtained regarding MAP (maximal MAP decrease observed over 6 consecutive hours) are summarised in FIG. 9 (data are presented as mean±standard error of the mean). In summary, a dose of 10 mg/kg ACT-132577 decreased MAP by 19±4 mm Hg in Dahl-S rats. In contrast to MAP, HR was not affected.

[8] = in comparison to corresponding alkylated derivatives; cited from earlier work
[9] = system: conscious, male hypertensive deoxycorticosterone acetate salt rats; assay: Chronic effects of repeated oral administration in DOCA-salt rats; type: in vivo, rat
Experimental: The chronic effects of repeated administrations of doses of 1, 10 and 100 mg/kg/day of ACT-132577, in particular mean arterial blood pressure (hereafter “MAP”), and heart rate (hereafter “HR”), were evaluated in conscious, male hypertensive deoxycorticosterone acetate salt rats (hereafter “DOCA-salt rats”-see details about this model in Gavras et al., Circ. Res. (1975), 36, 300-309). In the DOCA-salt rats, hypertension is induced by the combination of unilateral nephrectomy, implantation of pellets of the mineralocorticoid analog DOCA, and provision of 1% sodium chloride in drinking water. The results of the DOCA-salt rats treated with ACT-132577 were compared to those obtained for Wistar rats or for DOCA-salt rats that received only the vehicle (4% gelatin aquous solution).

[10] = system: conscious, male hypertensive deoxycorticosterone acetate salt rats; assay: Acute effects on MAP and HR by telemetry in DOCA-salt rats; type: in vivo, rat
Experimental: The acute effects of ACT-132577 on blood pressure, in particular on mean arterial blood pressure (hereafter “MAP”), and heart rate (hereafter “HR”) were evaluated by means of telemetry in conscious, male hypertensive deoxycorticosterone acetate salt rats (hereafter “DOCA-salt rats”—see details about this model in Gavras et al., Circ. Res. (1975), 36, 300-309). In the DOCA-salt rats, hypertension is induced by the combination of unilateral nephrectomy, implantation of pellets of the mineralocorticoid analog DOCA, and provision of 1% sodium chloride in drinking water. Groups of 6-11 DOCA-salt rats were used for the vehicle (7.5% gelatin aquous solution) and each dose of ACT-132577 tested (0.3, 1, 3, 10, 30, 100, and 300 mg/kg). Effects of ACT-132577 on HR and MAP were calculated for individual animals relative to the 24 h period before administering. The results obtained regarding MAP (maximal MAP decrease observed over 6 consecutive hours) are summarised in FIG. 10 (data are presented as mean±standard error of the mean). In summary, a dose of 10 mg/kg ACT-132577 decreased MAP by 29±6 mm Hg in DOCA-salt rats. In contrast to MAP, HR was not affected.

[11] = system: male Wistar rats; assay: Effect on fluid retention (haematocrit) in Wistar rats; type: in vivo, rat; conditions: single oral dose 1-30 mg/kg, 24 hours after administration
Experimental: A decrease in haematocrit (Hct) or haemoglobin occurs secondary to an increase in plasma volume and can be used as a marker of fluid retention. A single oral dose of aprocitentan (1-30 mg/kg) or vehicle (gelatin) was administered by gavage to male Wistar rats. Twenty-four hours after administration, sublingual blood was sampled under isoflurane-induced anesthesia. Haematocrit was measured using a hematology analyser.

[12] = 10 mg/kg, mean±standard error of the mean
[13] = DOCA-salt rats, 1, 10 and 100 mg/kg/day oral for 4 weeks
[14] = DOCA-salt rats, chronic oral administration

SMILES: COc1cc(OC)nc(O[C@H](C(=O)O)C(OC)(c2ccccc2)c2ccccc2)n1 [darusentan]
- Fluid retention/edema (most frequent adverse event) ([1]; 12% in each of the other groups): 28%
- Primary endpoint systolic blood pressure [1]: failed to show significant treatment effect
- Reduction of ambulatory blood pressure [1]: demonstrated efficacy

SMILES: NS(=O)(=O)Nc1ncnc(OCCOc2ncc(Br)cn2)c1-c1ccc(Br)cc1 [Form A, {5-(4-bromo-phenyl)-6-[2-(5-bromo-pyrimidin-2-yloxy)-ethoxy]-pyrimidin-4-yl}-sulfamide]
- Moisture taken up ([2]; at 95% r.h., reversible, without hysteresis upon drying): 2.2%
- Mass increase ([2]; first cycle from 40% r.h. to 80% r.h.): 0.4%
- Hygroscopicity (GVS) ([2]; sample obtained according to Example 1): slightly hygroscopic
- Crystal form by X-ray powder diffraction after storage ([3]; 92% relative humidity, 2 months): still consisting only in Form A crystals
- Crystal form by X-ray powder diffraction after storage ([3]; 92% relative humidity, 8 weeks): same result
- HPLC control after storage (change in peak area %, degradation) ([3]; 92% relative humidity, 8 weeks): no significant degradation

SMILES: CC(=O)S[C@@H]1CC2=CC(=O)CC[C@]2(C)[C@H]2CC[C@@]3(C)[C@@H](CC[C@@]34CCC(=O)O4)[C@H]12 [spironolactone, reference compound]
- Blood pressure when added on top of Exforge HCT [4]: further reduced blood pressure
- Blood pressure when added on top of Exforge HCT [5]: further reduced blood pressure

SMILES: NS(=O)(=O)Nc1ncnc(OCCOc2ncc(Br)cn2)c1-c1ccc(Br)cc1 [Form B, {5-(4-bromo-phenyl)-6-[2-(5-bromo-pyrimidin-2-yloxy)-ethoxy]-pyrimidin-4-yl}-sulfamide]
- Crystal form by X-ray powder diffraction after storage in a closed vial ([3]; closed 4 mL vial, about 3 weeks): transformed into Form A crystals

SMILES: NS(=O)(=O)Nc1ncnc(OCCOc2ncc(Br)cn2)c1-c1ccc(Br)cc1 [ACT-132577, {5-(4-bromo-phenyl)-6-[2-(5-bromo-pyrimidin-2-yloxy)-ethoxy]-pyrimidin-4-yl}-sulfamide]
- MAP decrease (maximal decrease over 6 consecutive hours) ([6]; 100 mg/kg, mean±standard error of the mean): 18±4 mm Hg
- Heart rate (HR) ([6]; doses 1-300 mg/kg): not affected
- MAP decrease (maximal decrease over 6 consecutive hours) [7, 12]: 19±4 mm Hg
- Heart rate (HR) ([7]; doses 0.3-300 mg/kg): not affected
- Blood pressure when added on top of Exforge HCT [4]: further reduced blood pressure
- Blood pressure reduction compared with spironolactone, on top of Exforge HCT ([4]; aprocitentan 100 mg/kg vs spironolactone 300 mg/kg): greater blood pressure reduction than spironolactone
- Clearance in vivo [8]: much shorter clearance
- Half-life in vivo [8]: much longer half-life
- DOCA-salt-induced increase in MAP [9, 13]: dose-dependently attenuated the DOCA-salt-induced increase in MAP
- Heart rate (HR) [9, 13]: without changing HR
- Left ventricular hypertrophy [9, 14]: tended to decrease left ventricular hypertrophy
- Plasma concentrations of N-terminal pro-brain natriuretic peptide (NTproBNP) [9, 14]: dose-dependent decrease
- Renal blood flow [9, 14]: dose-dependently increased renal blood flow
- Renal vascular resistance [9, 14]: decreased renal vascular resistance
- MAP decrease (maximal decrease over 6 consecutive hours) [10, 12]: 29±6 mm Hg
- Heart rate (HR) ([10]; doses 0.3-300 mg/kg): not affected
- Haematocrit (Hct), marker of fluid retention [11]: did not impact on haematocrit
- Blood pressure when added on top of Exforge HCT [5]: further reduced blood pressure
- Blood pressure reduction compared with spironolactone, on top of Exforge HCT ([5]; aprocitentan 10 mg/kg vs spironolactone 300 mg/kg): greater blood pressure reduction than spironolactone
